From ChEMBL document CHEMBL5727404, “Toll-like receptor 7 (TLR7) agonists having a heterobiaryl moiety, conjugates thereof, and methods and uses therefor” (2019)

Molecular target: T1, Toll-like receptor 7 (Homo sapiens, UniProt Q9NYK1)
T1 sequence (Q9NYK1 whole entry): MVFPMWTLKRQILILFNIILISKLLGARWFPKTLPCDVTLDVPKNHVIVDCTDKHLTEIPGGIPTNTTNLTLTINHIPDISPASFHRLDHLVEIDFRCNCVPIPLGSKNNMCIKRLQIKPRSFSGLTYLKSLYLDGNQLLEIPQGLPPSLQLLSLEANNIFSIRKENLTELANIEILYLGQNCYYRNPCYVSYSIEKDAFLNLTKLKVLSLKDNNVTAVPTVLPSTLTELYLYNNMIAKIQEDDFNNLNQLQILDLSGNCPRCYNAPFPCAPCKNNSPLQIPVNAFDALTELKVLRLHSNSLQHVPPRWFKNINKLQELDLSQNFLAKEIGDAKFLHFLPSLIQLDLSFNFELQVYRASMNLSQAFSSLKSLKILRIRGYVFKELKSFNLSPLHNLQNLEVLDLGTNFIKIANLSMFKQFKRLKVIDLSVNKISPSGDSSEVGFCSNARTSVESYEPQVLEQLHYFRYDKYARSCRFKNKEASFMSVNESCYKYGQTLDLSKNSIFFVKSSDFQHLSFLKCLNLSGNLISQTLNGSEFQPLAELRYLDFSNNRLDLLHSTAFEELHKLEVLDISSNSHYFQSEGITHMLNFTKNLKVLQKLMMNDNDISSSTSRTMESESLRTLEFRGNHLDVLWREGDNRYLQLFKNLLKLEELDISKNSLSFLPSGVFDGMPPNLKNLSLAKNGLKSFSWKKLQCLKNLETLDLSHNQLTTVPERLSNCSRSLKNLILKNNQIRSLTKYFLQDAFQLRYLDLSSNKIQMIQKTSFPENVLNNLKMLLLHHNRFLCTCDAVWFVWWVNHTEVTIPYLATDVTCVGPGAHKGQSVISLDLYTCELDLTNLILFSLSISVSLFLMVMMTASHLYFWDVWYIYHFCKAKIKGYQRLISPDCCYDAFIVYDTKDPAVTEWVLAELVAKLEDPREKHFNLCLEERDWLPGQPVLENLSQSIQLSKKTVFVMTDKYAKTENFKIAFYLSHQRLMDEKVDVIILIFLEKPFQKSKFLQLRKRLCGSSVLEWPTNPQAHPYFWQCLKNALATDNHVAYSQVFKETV
Assay: HEK-Blue™ TLR7 cells were added to each well of a 384-well tissue-culture plate (15,000 cells per well) and incubated 16-18 h at 37° C., 5% CO2. Compounds (100 nl) were dispensed into wells containing the HEK-Blue™ TLR cells and the treated cells were incubated at 37° C., 5% CO2. After 18 h treatment ten microliters of freshly-prepared Quanti-Blue reagent (Invivogen) was added to each well, incubated for 30 min (37° C., 5% CO2) and SEAP levels measured using an Envision plate reader (OD=620 nm).

## CCCCOc1nc(N)c2nc(O)n(Cc3ccc(-c4csc(CN)c4)nc3)c2n1
  EC50: 52 nM

## CCCCOc1nc(N)c2nc(O)n(Cc3ccc(-c4csc(CN)c4)cc3)c2n1
  EC50: 59 nM
